Data from patent US20140088069A1, “NOVEL ANTIBACTERIAL COMBINATION THERAPY” (priority 2011, published 2014).

Columns and labels:
Assay type in all cases: cell-based, Staphylococcus aureus
MRSA = test: Analogues in combination with cefuroxime against MRSA (FIC index)
Method: A series of analogues were synthesized (as shown in Table 5) in which the thienopyridine ring was removed.
These were tested in combination with cefuroxime against MRSA and results are shown below (Table 6).

CA-MRSA USA300 = test: Checkerboard (FIC) analysis against CA-MRSA USA300; conditions: for drug-drug interaction with cefuroxime (checkerboard secondary screen): in combination with cefuroxime
Method: Here a matrix of drug concentrations were tested in combinations at the concentrations shown (μg/mL). Greyscale indicates growth—darker is more growth, lighter is less growth. FIC index is a measure of synergy and is calculated as follows: FIC index=FIC (cefuroxime)+FIC (drug compound).
The combination of ticlopidine and cefuroxime was further tested as above against a variety of S. aureus strains as shown in Table 1 below.
FIC index=FIC (β-lactam)+FTC (ticlopidine). […]

[1] = tested on: S. aureus (Newman strain); test: Checkerboard (FIC) analysis against S. aureus Newman; conditions: antibiotic in combination with ticlopidine; S. aureus (Newman strain)
[2] = compound in combination with cefuroxime, MRSA (Table 5)
[3] = antibiotic in combination with ticlopidine, CA-MRSA USA 300, FIC (β-lactam)+FIC (ticlopidine)
[4] = novel analogue in combination with cefuroxime, MRSA (Table 6)

Row | Molecule | FIC index (CA-MRSA USA300; [3]) | FIC index [1] | other results
1 | NC(=O)C(c1ccccc1C(F)(F)F)N1CCc2ccccc2C1 (stereo not shown) [Compound 22] |  |  | FIC index (MRSA; [2]): ≦1
2 | CC1=C(C(=O)O)N2C(=O)[C@@H](NC(=O)[C@H](N)C3=CCC=CC3)[C@H]2SC1 [Cephradine] | ≦2 |  | 
3 | O=[N+]([O-])c1ccccc1CN1CCc2ccccc2C1 [Compound 16, 2-(2-Nitro-benzyl)-1,2,3,4-tetrahydro-isoquinoline] |  |  | FIC index (MRSA; [2]): ≦0.187
4 | O=C(O)C(c1ccccc1Cl)N1CCc2sccc2C1 (stereo not shown) [Compound 20] |  |  | FIC index (MRSA; [2]): ≦0.75
5 | CO[C@@]1(NC(=O)CSCC#N)C(=O)N2C(C(=O)O)=C(CSc3nnnn3C)CS[C@@H]21 [Cefmetazole] |  | ≦0.75 | 
6 | Polymyxin |  | ≦0.5 | 
7 | c1cc2c(s1)CCNC2 [Compound 2, 4,5,6,7-Tetrahydro-thieno[3,2-c]pyridine] |  |  | FIC index (MRSA; [2]): ≦2
8 | FC(F)(F)c1ccccc1CN1CCc2ccccc2C1 [Compound 17, 2-(2-Trifluoromethyl-benzyl)-1,2,3,4-tetrahydro-isoquinoline] |  |  | FIC index (MRSA; [2]): ≦0.094
9 | CO[C@@]1(NC(=O)Cc2cccs2)C(=O)N2C(C(=O)O)=C(COC(N)=O)CS[C@@H]21 [Cefoxitin] | ≦0.5 | ≦0.75 | 
10 | CCN1CCN(Cc2ccccc2Cl)CC1 [Compound 10, 1-(2-Chloro-benzyl)-4-ethyl-piperazine] |  |  | FIC index (MRSA; [2]): ≦2
11 | N[C@@H](C(=O)N[C@@H]1C(=O)N2C(C(=O)O)=C(Cl)CS[C@H]12)c1ccccc1 [Cefaclor] | ≦0.5 | ≦1 | 
12 | CC[C@H]1OC(=O)[C@H](C)[C@@H](O[C@H]2C[C@@](C)(OC)[C@@H](O)[C@H](C)O2)[C@H](C)[C@@H](O[C@@H]2O[C@H](C)C[C@H](N(C)C)[C@H]2O)[C@](C)(O)C[C@@H](C)C(=O)[C@H](C)[C@@H](O)[C@]1(C)O [Erythromycin] |  | ≦2 | 
13 | O=C(O)C(c1ccccc1C(F)(F)F)N1CCc2ccccc2C1 (stereo not shown) [Compound 23] |  |  | FIC index (MRSA; [2]): ≦2
14 | Cc1onc(-c2ccccc2Cl)c1C(=O)N[C@@H]1C(=O)N2[C@@H]1SC(C)(C)[C@@H]2C(=O)O [Cloxacillin] | ≦0.5 |  | 
15 | CCN1CCN(C(=O)N[C@@H](C(=O)N[C@@H]2C(=O)N3[C@@H]2SC(C)(C)[C@@H]3C(=O)O)c2ccccc2)C(=O)C1=O [Piperacillin] | ≦0.5 | ≦0.63 | 
16 | CN(C)CCC(c1ccc(Cl)cc1)c1ccccn1 (stereo not shown) [chlorpheniramine] |  |  | drug-drug interaction with cefuroxime (checkerboard secondary screen) (CA-MRSA USA300): synergistic interactions
17 | C[C@H]1COc2c(N3CCN(C)CC3)c(F)cc3c(=O)c(C(=O)O)cn1c23 [Levofloxacin] |  | ≦2 | 
18 | Clc1ccc(CN2CCc3ccccc3C2)cc1 [Compound 5, 2-(4-Chloro-benzyl)-1,2,3,4-tetrahydro-isoquinoline] |  |  | FIC index (MRSA; [2]): ≦2
19 | COC(=O)C(c1ccccc1Cl)N1CCc2ccccc2C1 (stereo not shown) [Compound 18, (2-Chloro-phenyl)-(3,4-dihydro-1H-isoquinolin-2-yl)-acetic acid methyl ester] |  |  | FIC index (MRSA; [2]): ≦0.187
20 | CC1=C(C(=O)O)N2C(=O)[C@@H](NC(=O)[C@H](N)c3ccccc3)[C@H]2SC1 [Cephalexin] | ≦0.75 | ≦1 | 
21 | CC1=C(C(=O)O)N2C(=O)[C@@H](NC(=O)[C@H](N)c3ccc(O)cc3)[C@H]2SC1 [Cefadroxil] | ≦2 |  | 
22 | N[C@@H]1CONC1=O [D-cycloserine] |  | ≦2 | 
23 | COc1cc(Cc2cnc(N)nc2N)cc(OC)c1OC [Trimethoprim] |  | ≦2 | 
24 | NC(=O)c1cc[n+](CC2=C(C(=O)O)N3C(=O)[C@@H](NC(=O)[C@@H](c4ccccc4)S(=O)(=O)[O-])[C@H]3SC2)cc1 [Cefsulodin] | ≦2 | ≦1 | 
25 | Clc1ccccc1CN1CCC2CCCCC2C1 (stereo not shown) [Compound 13, 2-(2-Chloro-benzyl)-decahydro-isoquinoline] |  |  | FIC index (MRSA; [2]): ≦2
26 | COC(=O)C(c1ccccc1C(F)(F)F)N1CCc2ccccc2C1 (stereo not shown) [Compound 21] |  |  | FIC index (MRSA; [2]): ≦0.125
27 | CC(=O)OCC1=C(C(=O)O)N2C(=O)[C@@H](NC(=O)Cc3cccs3)[C@H]2SC1 [Cephalothin] | ≦0.5 |  | 

Row | Molecule | FIC index (CA-MRSA USA300; [3]) | FIC index [1] | other results
28 | CN1[C@@H]2CC[C@H]1C[C@@H](OC(c1ccccc1)c1ccccc1)C2 [Benztropine] |  |  | drug-drug interaction with cefuroxime (checkerboard secondary screen) (CA-MRSA USA300): synergistic interactions
29 | CC(=O)Oc1cc2c(s1)CCN(C(C(=O)C1CC1)c1ccccc1F)C2 (racemic) [Prasugrel, (RS)-5-[2-cyclopropyl-1-(2-fluorophenyl)-2-oxoethyl]-4,5,6,7-tetrahydrothieno[3,2-c]pyridin-2-yl acetate] |  |  | MIC (CA-MRSA USA300; Staphylococcus aureus, read-out: MIC thienopyridine): > 128 µg/mL; FIC thienopyridine (CA-MRSA USA300; in the presence of cefuroxime, CA-MRSA USA300 (Table 4)): 0.25; FIC index (CA-MRSA USA300; thienopyridine in combination with cefuroxime, CA-MRSA USA300 (Table 4)): ≦0.50; FIC index (CA-MRSA USA300; thienopyridine in combination with cefuroxime, CA-MRSA USA300 (Table 4), listed as prasugrel): ≤ 0.50
30 | Cc1onc(-c2ccccc2)c1C(=O)N[C@@H]1C(=O)N2[C@@H]1SC(C)(C)[C@@H]2C(=O)O [Oxacillin] | ≦0.5 | ≦0.63 | 
31 | CC(C)(O/N=C(\C(=O)N[C@@H]1C(=O)N2C(C(=O)[O-])=C(C[n+]3ccccc3)CS[C@H]12)c1csc(N)n1)C(=O)O [Ceftazidime] | ≦2 | ≦1 | 
32 | NC[C@H]1O[C@H](O[C@H]2[C@H](O)[C@@H](O[C@H]3O[C@H](CO)[C@@H](O)[C@H](N)[C@H]3O)[C@H](N)C[C@@H]2N)[C@H](N)C[C@@H]1O [Tobramycin] |  | ≦2 | 
33 | Clc1ccccc1CN1CCCc2ccccc21 [Compound 9, 1-(2-Chloro-benzyl)-1,2,3,4-tetrahydro-quinoline] |  |  | FIC index (MRSA; [2]): ≦0.187
34 | CC1(C)S[C@@H]2[C@H](NC(=O)Cc3ccccc3)C(=O)N2[C@H]1C(=O)O [Penicillin G] | ≦0.5 |  | 
35 | O=C(O)C(c1ccccc1Cl)N1CCc2ccccc2C1 (stereo not shown) [Compound 4-novel, (2-Chloro-phenyl)-(3,4-dihydro-1H-isoquinolin-2-yl)-acetic acid] |  |  | FIC index (MRSA; [4]): ≦2
36 | c1ccc2c(c1)CCN(Cc1ccncc1)C2 [Compound 7, 2-Pyridin-4-ylmethyl-1,2,3,4-tetrahydro-isoquinoline] |  |  | FIC index (MRSA; [2]): ≦2
37 | CCCCCCCCCC(=O)N[C@@H](Cc1c[nH]c2ccccc12)C(=O)N[C@H](CC(N)=O)C(=O)N[C@@H](CC(=O)O)C(=O)N[C@@H]1C(=O)NCC(=O)N[C@@H](CCCN)C(=O)N[C@@H](CC(=O)O)C(=O)N[C@H](C)C(=O)N[C@@H](CC(=O)O)C(=O)NCC(=O)N[C@H](CO)C(=O)N[C@@H]([C@H](C)CC(=O)O)C(=O)N[C@@H](CC(=O)c2ccccc2N)C(=O)O[C@@H]1C [Daptomycin] |  | ≦2 | 
38 | CC[C@H]1OC(=O)[C@H](C)[C@@H](O[C@H]2C[C@@](C)(OC)[C@@H](O)[C@H](C)O2)[C@H](C)[C@@H](O[C@@H]2O[C@H](C)C[C@H](N(C)C)[C@H]2O)[C@](C)(OC)C[C@@H](C)C(=O)[C@H](C)[C@@H](O)[C@]1(C)O [Clarithromycin] |  | ≦2 | 
39 | C[C@@H]1O[C@@H]1P(=O)(O)O [Fosfomycin] |  | ≦0.5 | 
40 | Cc1ccccc1CN1CCc2ccccc2C1 [Compound 14, 2-(2-Methyl-benzyl)-1,2,3,4-tetrahydro-isoquinoline] |  |  | FIC index (MRSA; [2]): ≦0.125
41 | Oc1ccc2c(c1)CN(Cc1ccccc1Cl)CC2 [Compound 2-novel, 2-(2-Chloro-benzyl)-1,2,3,4-tetrahydro-isoquinolin-7-ol] |  |  | FIC index (MRSA; [4]): ≦2
42 | CO/N=C(\C(=O)N[C@@H]1C(=O)N2C(C(=O)O)=CCS[C@H]12)c1csc(N)n1 [Ceftizoxime] | ≦0.5 |  | 
43 | CO/N=C(\C(=O)N[C@@H]1C(=O)N2C(C(=O)O)=C(COC(C)=O)CS[C@H]12)c1csc(N)n1 [Ceftoxamine] |  | ≦1 | 
44 | CN[C@H](CC(C)C)C(=O)N[C@H]1C(=O)N[C@@H](CC(N)=O)C(=O)N[C@H]2C(=O)N[C@H]3C(=O)N[C@H](C(=O)N[C@H](C(=O)O)c4cc(O)cc(O)c4-c4cc3ccc4O)[C@H](O)c3ccc(c(Cl)c3)Oc3cc2cc(c3O[C@@H]2O[C@H](CO)[C@@H](O)[C@H](O)[C@H]2O[C@H]2C[C@](C)(N)[C@H](O)[C@H](C)O2)Oc2ccc(cc2Cl)[C@H]1O [Vancomycin] |  | ≦2 | 
45 | CCOc1ccc2ccccc2c1C(=O)N[C@@H]1C(=O)N2[C@@H]1SC(C)(C)[C@@H]2C(=O)O [Nafcillin] | ≦0.5 | ≦1 | 
46 | Tunicamycin |  | ≦0.75 | 
47 | CO/N=C(\C(=O)N[C@@H]1C(=O)N2C(C(=O)O)=C(COC(C)=O)CS[C@H]12)c1csc(N)n1 [Cefotaxime] | ≦0.5 |  | 
48 | C[C@@H](O)[C@H]1C(=O)N2C(C(=O)O)=C(S[C@@H]3CN[C@H](C(=O)N(C)C)C3)[C@H](C)[C@H]12 [Meropenem] | ≦0.75 |  | 
49 | CC1(C)S[C@@H]2[C@H](NC(=O)[C@H](N)c3ccccc3)C(=O)N2[C@H]1C(=O)O [Ampicillin] | ≦0.5 | ≦1 | 
50 | Cn1nnnc1SCC1=C(C(=O)O)N2C(=O)[C@@H](NC(=O)[C@H](O)c3ccccc3)[C@H]2SC1 [Cefamandole] | ≦0.63 | ≦0.75 | 
51 | CC(=O)OCC1=C(C(=O)O)N2C(=O)[C@@H](NC(=O)CCC[C@@H](N)C(=O)O)[C@H]2SC1 [Cephalosporin C] |  | ≦0.75 | 
52 | COc1cccc(OC)c1C(=O)N[C@@H]1C(=O)N2[C@@H]1SC(C)(C)[C@@H]2C(=O)O [Methicillin] | ≦0.63 | ≦1 | 
53 | O=C(O)c1cn(C2CC2)c2cc(N3CCNCC3)c(F)cc2c1=O [Ciprofloxacin] |  | ≦2 | 
